Measured values taken from patent US7273877B2, “5-substituted-4-[(substituted phenyl) amino]-2-pyridone derivatives” (Warner-Lambert Company, LLC, priority 2003, dated 2007).
pIC50: −log10 of the molar value.

Assays:
[1] = tested on: phosphorylation of MAP kinase (ERK) in murine colon 26 (C26) carcinoma cells; test: Cellular inhibition of ERK phosphorylation, C26ELSA (pERK ELISA format); assay type: cell-based; conditions: Mus musculus, 1 h, C26 cells treated with test compound for one hour at 37° C.
Experimental: MEK inhibitors were evaluated by determining their ability to inhibit phosphorylation of MAP kinase (ERK) in murine colon 26 (C26) carcinoma cells. Since ERK1 and ERK2 represent the only known substrates for MEK1and MEK2, the measurement of inhibition of ERK phosphorylation in cells provides direct read out of cellular MEK inhibition by the compounds of the invention. Detection of phosphorylation of ERK was carried out either by Western blot or ELISA format. Briefly, the assays involve treatment of exponentially growing C26 cells with varying concentrations of the test compound (or vehicle control) for one hour at 37° C. For Western blot assay, cells were rinsed free of compound/vehicle and lysed in a solution containing 70 mM NaCl, 50 mM glycerol phosphate, 10 mM HEPES, pH 7.4, 1% Triton X-100, 1 mM Na3VO4, 100 μM PMSF, 10 μM leupeptin and 10 μM pepstatin. Supernatants were then subjected to gel electrophoresis and hybridized to a primary antibody recognizing dually phosphorylated ERK1 and ERK2. To evaluate total MAPK levels, blots were subsequently ‘stripped’ and re-probed with a 1:1 mixture of polyclonal antibodies recognizing unphosphorylated ERK1 and ERK2. For pERK ELISA assay, pERK TiterZyme Enzyme immunometric Assay kits were acquired from Assay Designs, Inc (Ann Arbor, Mich.). Briefly, cells were harvested in lysis solution containing 50 mM β-glycerophosphate, 10 mM HEPES, ph7.4, 70 mM NaCl, 2 mM EDTA and 1% SDS and protein lysates were diluted 1:15 with supplied Assay buffer prior to the execution of the assay. The subsequent steps were carried out essentially as recommended by the manufacturer.
The inhibition data generated by the above protocols is disclosed in Table I. If several concentrations of inhibitor were tested, IC50 values (the concentration which gives 50% inhibition) were determined graphically from the dose response curve for % inhibition. Otherwise, percent inhibitions at measured concentrations are reported.

melting point	pIC50 [1]	SMILES
177 to 179 °C	≤ 5.30	Cn1cc(C(=O)NCCO)c(Nc2ccc(CCCO)cc2F)cc1=O [Example 7, 4-[2-Fluoro-4-(3-hydroxypropyl)anilino]-N-(2-hydroxyethyl)-1-methyl-6-oxo-1,6-dihydro-3-pyridinecarboxamide]
161 to 164 °C	≤ 5.30	Cn1cc(C(=O)NCCCO)c(Nc2ccc(CCCO)cc2F)cc1=O [Example 9, 4-[2-Fluoro-4-(3-hydroxypropyl)anilino]-N-(3-hydroxypropyl)-1-methyl-6-oxo-1,6-dihydro-3-pyridinecarboxamide]
254 to 256 °C	≤ 5.30	O=C(NCCO)c1c[nH]c(=O)cc1Nc1ccc(I)cc1F [Example 11, 4-(2-Fluoro-4-iodoanilino)-N-(2-hydroxyethyl)-6-oxo-1,6-dihydro-3-pyridinecarboxamide]
253 to 255 °C	≤ 5.30	O=C(NCCCO)c1c[nH]c(=O)cc1Nc1ccc(I)cc1F [Example 14, 4-(2-Fluoro-4-iodoanilino)-N-(3-hydroxypropyl)-6-oxo-1,6-dihydro-3-pyridinecarboxamide]
269 to 272 °C	7.68	C#Cc1ccc(Nc2cc(=O)n(C)cc2C(N)=O)c(F)c1 [Example 17, 4-(4-Ethynyl-2-fluoroanilino)-1-methyl-6-oxo-1,6-dihydro-3-pyridinecarboxamide]
320 to 325 °C	6.96	NC(=O)c1c[nH]c(=O)cc1Nc1ccc(I)cc1F [Example 19, 4-(2-Fluoro-4-iodoanilino)-6-oxo-1,6-dihydro-3-pyridinecarboxamide]
214 to 216 °C	6.20	Cn1cc(C(N)=O)c(Nc2ccc(CCCO)cc2F)cc1=O [Example 21, 4-[2-Fluoro-4-(3-hydroxypropyl)anilino}-1-methyl-6-oxo-1,6-dihydro-3-pyridinecarboxamide]
199 to 202 °C	≤ 5.30	O=C(O)Cn1cc(C(=O)NCCCO)c(Nc2ccc(I)cc2F)cc1=O [Example 24, (4-(2-Fluoro-4-iodoanilino)-5-{[(3-hydroxypropyl)amino]carbonyl}-2-oxo-1(2H)-pyridinyl)acetic acid]
215 to 217 °C	6.37	C=CCn1cc(C(N)=O)c(Nc2ccc(I)cc2F)cc1=O [Example 30, 1-Allyl-4-(2-fluoro-4-iodoanilino)-6-oxo-1,6-dihydro-3-pyridinecarboxamide]
285 to 288 °C	≤ 5.30	Cc1ccc(Nc2cc(=O)n(C)cc2C(N)=O)c(F)c1 [Example 37, 4-(2-Fluoro-4-methylanilino)-1-methyl-6-oxo-1,6-dihydro-3-pyridinecarboxamide]
282 to 284 °C	6.92	Cn1cc(C(N)=O)c(Nc2ccc(Br)cc2F)cc1=O [Example 40, 4-(4-Bromo-2-fluoroanilino)-1-methyl-6-oxo-1,6-dihydro-3-pyridinecarboxamide]
	< 5.30	CSc1ccc(Nc2cc(=O)n(C)cc2-c2nnc(NCCO)o2)c(F)c1 [Example 90, 4-(2-Fluoro-4-methylsulfanyl-phenylamino)-5-[5-(2-hydroxy-ethylamino)[1,3,4]oxadiazol-2-yl]-1-methyl-1H-pyridin-2-one]
	< 6.00	CSc1ccc(Nc2cc(=O)n(C)cc2-c2nnc(NC(CO)CO)o2)c(F)c1 [Example 91, 4-(2-Fluoro-4-methylsulfanyl-phenylamino)-5-[5-(2-hydroxy-1-hydroxymethyl-ethylamino)-[1,3,4]oxadiazol-2-yl]-1-methyl-1H-pyridin-2-one]
	5.91	CSc1ccc(Nc2cc(=O)n(C)cc2-c2nnc(NCC(O)CO)o2)c(F)c1 (stereo not shown) [Example 92, 5-[5-(2,3-dihydroxy-propylamino)-[1,3,4]oxadiazol-2-yl]-4-(2-fluoro-4-methylsulfanyl-phenylamino)-1-methyl-1H-pyridine-2-one]
